One experiment deals with HDAC8 (Homo sapiens (Human), UniProt Q9BY41). The note with it: read-out: HDAC8 IC50.
A further experiment concerns the target HDAC1 (Homo sapiens (Human), UniProt Q13547). The following applies: read-out: HDAC1 IC50.

For orientation: IC50 means the concentration needed to halve the response being measured.

HDAC1, sequence (Q13547 whole entry): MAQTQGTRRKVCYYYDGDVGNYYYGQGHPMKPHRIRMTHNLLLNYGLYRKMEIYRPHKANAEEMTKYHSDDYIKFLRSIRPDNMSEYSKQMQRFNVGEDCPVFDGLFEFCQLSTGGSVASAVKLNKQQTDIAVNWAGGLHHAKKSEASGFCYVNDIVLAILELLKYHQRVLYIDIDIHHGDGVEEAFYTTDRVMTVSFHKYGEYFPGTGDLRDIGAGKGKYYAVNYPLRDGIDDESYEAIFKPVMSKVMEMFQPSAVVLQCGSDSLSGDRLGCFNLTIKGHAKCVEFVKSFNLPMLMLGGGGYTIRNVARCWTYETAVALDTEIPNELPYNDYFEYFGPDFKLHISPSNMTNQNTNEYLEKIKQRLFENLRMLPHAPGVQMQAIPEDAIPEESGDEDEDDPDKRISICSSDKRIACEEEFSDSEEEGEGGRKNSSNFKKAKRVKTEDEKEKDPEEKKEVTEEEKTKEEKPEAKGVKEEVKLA
HDAC8, sequence (Q9BY41 whole entry): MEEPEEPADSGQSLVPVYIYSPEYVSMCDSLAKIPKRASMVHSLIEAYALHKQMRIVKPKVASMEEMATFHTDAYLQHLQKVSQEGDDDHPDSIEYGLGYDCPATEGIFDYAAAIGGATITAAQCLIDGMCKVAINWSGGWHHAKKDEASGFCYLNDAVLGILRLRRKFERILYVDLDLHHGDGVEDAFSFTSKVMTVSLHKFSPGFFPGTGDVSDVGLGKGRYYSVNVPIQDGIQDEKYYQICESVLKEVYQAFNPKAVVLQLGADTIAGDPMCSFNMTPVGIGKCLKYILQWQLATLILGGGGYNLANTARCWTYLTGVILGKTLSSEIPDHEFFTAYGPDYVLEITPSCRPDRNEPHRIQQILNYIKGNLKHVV
Description for HDAC1: Assay protocol: In brief, compounds were titrated in 100% DMSO via accoustic dispensing directly to the assay plate using the ECHO 550 [Labcyte]. HDAC enzymes at the concentrations indicated above were added in assay buffer to the assay plates containing the compounds using a Combi [Thermo Scientific]. The wells were mixed, and the plates were allowed to pre-incubate at ambient temperature for 3 h. After the 3 h, the appropriate substrate, at the concentrations indicated above, was added to the wells using a Combi. The wells were mixed, and the plates were allowed to incubate at ambient temperature for 1 h. After the 1 h, the appropriate Developer/stop solution was added to the wells using a Combi. The wells were mixed, and the plates were allowed to incubate at ambient temperature for 1 h. […] Data were analyzed using 4P curve fitting with Activity Base [IDBS] software.

Turning to `Cn1c([C@@H]2CCC(=O)N2c2ccc(-c3noc(C(F)(F)F)n3)cc2F)nc2ccccc21` [Example 107, (S)-1-(2-fluoro-4-(5-(trifluoromethyl)-1,2,4-oxadiazol-3-yl)phenyl)-5-(1-methyl-1H-benzo[d]imidazol-2-yl)pyrrolidin-2-one], the IC50 at HDAC8 amounted to 2200 nM; on HDAC1, 300 nM.
In the case of `CNc1ccccc1NC(=O)[C@@H]1CCC(=O)N1c1ccc(-c2noc(C(F)(F)F)n2)cc1` [Example 109, (S)-N-(2-(methylamino)phenyl)-5-oxo-1-(4-(5-(trifluoromethyl)-1,2,4-oxadiazol-3-yl)phenyl)pyrrolidine-2-carboxamide], the IC50 worked out at 2300 nM on HDAC8 and 1000 nM on HDAC1.
In the case of `O=C1CC[C@@H](c2nc(-c3cccnc3)no2)N1c1ccc(-c2noc(C(F)(F)F)n2)cc1` [Example 113, (S)-5-(3-(pyridin-3-yl)-1,2,4-oxadiazol-5-yl)-1-(4-(5-(trifluoromethyl)-1,2,4-oxadiazol-3-yl)phenyl)pyrrolidin-2-one], the IC50 is 410 nM at HDAC8 and 130 nM on HDAC1.
With `O=C1CC[C@@H](c2nc(-c3ccncc3)no2)N1c1ccc(-c2noc(C(F)(F)F)n2)cc1` [Example 114, (S)-5-(3-(pyridin-4-yl)-1,2,4-oxadiazol-5-yl)-1-(4-(5-(trifluoromethyl)-1,2,4-oxadiazol-3-yl)phenyl)pyrrolidin-2-one], the values for the IC50 at HDAC8 and at HDAC1 were 270 nM and 82 nM, respectively.
Consider `O=C1CCC(c2ccccc2)N1c1ccc(-c2noc(C(F)(F)F)n2)cc1` (stereo not shown) [Example 115, 5-phenyl-1-(4-(5-(trifluoromethyl)-1,2,4-oxadiazol-3-yl)phenyl)pyrrolidin-2-one], for which the IC50 on HDAC8 came out at 920 nM; on HDAC1, 1000 nM.
`O=C1CCC(c2ccc(Cl)cc2)N1c1ccc(-c2noc(C(F)(F)F)n2)cc1F` (stereo not shown) [Example 119, 5-(4-chlorophenyl)-1-(2-fluoro-4-(5-(trifluoromethyl)-1,2,4-oxadiazol-3-yl)phenyl)pyrrolidin-2-one]: the IC50 at HDAC8 came to 1300 nM; at HDAC1 it was 720 nM.
In the same order, the values of `Cc1noc([C@H]2CCCCN2c2cc(F)c(-c3noc(C(F)(F)F)n3)cc2F)n1` [Example 121, (R)-3-(2,5-difluoro-4-(2-(3-methyl-1,2,4-oxadiazol-5-yl)piperidin-1-yl)phenyl)-5-(trifluoromethyl)-1,2,4-oxadiazole] are 29000 nM and 26000 nM.
In the same order, the values of `Cc1noc([C@@H]2CCC(=O)N2c2ccc(-c3noc(C(F)(F)F)n3)cc2F)n1` [Example 123, (S)-1-(2-fluoro-4-(5-(trifluoromethyl)-1,2,4-oxadiazol-3-yl)phenyl)-5-(3-methyl-1,2,4-oxadiazol-5-yl)pyrrolidin-2-one] are 5200 nM and 1000 nM.
In the same order, the values of `CC(C)(C)OC(=O)[C@@H]1CCC(=O)N1c1ccc(-c2noc(C(F)(F)F)n2)cc1F` [Example 125, tert-butyl (S)-1-(2-fluoro-4-(5-(trifluoromethyl)-1,2,4-oxadiazol-3-yl)phenyl)-5-oxopyrrolidine-2-carboxylate] are 6200 nM and 430 nM.
`O=C1CCCC(c2ccccc2)N1c1ccc(-c2noc(C(F)(F)F)n2)cn1` (stereo not shown) [Example 128, 6-phenyl-1-(5-(5-(trifluoromethyl)-1,2,4-oxadiazol-3-yl)pyridin-2-yl)piperidin-2-one]: the results for the IC50 at HDAC8 and on HDAC1 were 5100 nM and 2900 nM, respectively.
On to `CN1CCN(c2ccc(-c3noc(C(F)(F)F)n3)cn2)[C@@H](c2ccccc2)C1` [Example 134, (S)-3-(6-(4-methyl-2-phenylpiperazin-1-yl)pyridin-3-yl)-5-(trifluoromethyl)-1,2,4-oxadiazole], for which the figures for the IC50 at HDAC8 and at HDAC1 were 2100 nM and 360 nM, respectively.
For `Cc1cccc(CCOc2cc(-c3noc(C(F)(F)F)n3)ccn2)n1` [Example 139, 3-(2-(2-(6-methylpyridin-2-yl)ethoxy)pyridin-4-yl)-5-(trifluoromethyl)-1,2,4-oxadiazole], the IC50 on HDAC8 is 4600 nM; on HDAC1 it was 3400 nM.
For `FC(F)(F)c1nc(-c2ccc(N3CCOC[C@@H]3c3ccccc3)nc2)no1` [Example 141, (S)-3-phenyl-4-(5-(5-(trifluoromethyl)-1,2,4-oxadiazol-3-yl)pyridin-2-yl)morpholine], the IC50 at HDAC8 is 1800 nM; at HDAC1, 350 nM.
Regarding `FC(F)(F)c1nc(-c2ccc(N3CCOCC3c3cccnc3)nc2)no1` (stereo not shown) [Example 143, 3-(pyridin-3-yl)-4-(5-(5-(trifluoromethyl)-1,2,4-oxadiazol-3-yl)pyridin-2-yl)morpholine], the IC50 on HDAC8 was determined as 2800 nM; at HDAC1, 6200 nM.
With `O=C1NCCN(c2ccc(-c3noc(C(F)(F)F)n3)cn2)C1c1cccc(F)c1` (stereo not shown) [Example 153, 3-(3-fluorophenyl)-4-(5-(5-(trifluoromethyl)-1,2,4-oxadiazol-3-yl)pyridin-2-yl)piperazin-2-one], the IC50 at HDAC8 amounted to 280 nM; on HDAC1, 124 nM.
As to `O=C1COC[C@@H](c2ccccc2)N1c1ccc(-c2noc(C(F)(F)F)n2)cc1F` [Example 161, (R)-4-(2-fluoro-4-(5-(trifluoromethyl)-1,2,4-oxadiazol-3-yl)phenyl)-5-phenylmorpholin-3-one], the IC50 stood at 2100 nM at HDAC8 and 390 nM at HDAC1.
As for `CN1CC(=O)N(c2ccc(-c3noc(C(F)(F)F)n3)cc2)C(c2ccccc2)C1` (stereo not shown) [Example 162, 4-methyl-6-phenyl-1-(4-(5-(trifluoromethyl)-1,2,4-oxadiazol-3-yl)phenyl)piperazin-2-one], the IC50 at HDAC8 turned out to be 1400 nM; at HDAC1, 850 nM.
With `O=C1COC[C@@H](c2ccccc2)N1c1cnc(-c2noc(C(F)(F)F)n2)cn1` [Example 164, (R)-5-phenyl-4-(5-(5-(trifluoromethyl)-1,2,4-oxadiazol-3-yl)pyrazin-2-yl)morpholin-3-one], the figures for the IC50 on HDAC8 and at HDAC1 were 6100 nM and 2900 nM, respectively.
On the same counts, the results for `O=C1COC[C@@H](c2ccccc2)N1c1ccc(-c2noc(C(F)(F)F)n2)nn1` [Example 165, (R)-5-phenyl-4-(6-(5-(trifluoromethyl)-1,2,4-oxadiazol-3-yl)pyridazin-3-yl)morpholin-3-one] are 21000 nM and 28000 nM.
For `NC(=O)c1ccccc1NCc1ccc(-c2noc(C(F)(F)F)n2)cn1` [Example 174, 2-(((5-(5-(Trifluoromethyl)-1,2,4-oxadiazol-3-yl)pyridin-2-yl)methyl)amino)benzamide], the figures for the IC50 at HDAC8 and at HDAC1 were 700 nM and 300 nM, respectively.
As for `O=C1CC[C@@H](CO)N1c1ccc(-c2noc(C(F)(F)F)n2)c(F)c1` [Example 188, (S)-1-(3-Fluoro-4-(5-(trifluoromethyl)-1,2,4-oxadiazol-3-yl)phenyl)-5-(hydroxymethyl)pyrrolidin-2-one], the IC50 at HDAC8 was found to be 38 nM; at HDAC1, 380 nM.
On to `O=C1CC[C@@H](CN2CCOCC2)N1c1ccc(-c2noc(C(F)(F)F)n2)c(F)c1` [Example 189, (S)-1-(3-Fluoro-4-(5-(trifluoromethyl)-1,2,4-oxadiazol-3-yl)phenyl)-5-(morpholinomethyl)pyrrolidin-2-one], for which the IC50 at HDAC8 was found to be 6900 nM; on HDAC1, 15000 nM.
Consider `FC(F)(F)c1nc(-c2ccnc(OCc3ccno3)c2)no1` [Example 207, 2-(isoxazol-5-ylmethoxy)-4-[5-(trifluoromethyl)-1,2,4-oxadiazol-3-yl]pyridine], for which the values for the IC50 at HDAC8 and on HDAC1 were 1300 nM and 1500 nM, respectively.
As to `FC(F)(F)c1nc(-c2ccnc(OCc3cnn4c3OCCC4)c2)no1` [Example 209, 3-[({4-[5-(trifluoromethyl)-1,2,4-oxadiazol-3-yl]pyridin-2-yl}oxy)methyl]-6,7-dihydro-5H-pyrazolo[5,1-b][1,3]oxazine], the IC50 at HDAC8 came to 4400 nM; on HDAC1 it was 6800 nM.
As for `Cn1nccc1COc1cc(-c2noc(C(F)(F)F)n2)ccn1` [Example 221, 2-[(1-methyl-1H-pyrazol-5-yl)methoxy]-4-[5-(trifluoromethyl)-1,2,4-oxadiazol-3-yl]pyridine], the IC50 came out at 1600 nM on HDAC8 and 2800 nM at HDAC1.
On the same counts, the results for `Cc1nc(COc2cc(-c3noc(C(F)(F)F)n3)ccn2)no1` [Example 225, 2-[(5-methyl-1,2,4-oxadiazol-3-yl)methoxy]-4-[5-(trifluoromethyl)-1,2,4-oxadiazol-3-yl]pyridine] are 620 nM and 1500 nM.
On to `Cn1c(OCc2ccc(-c3noc(C(F)(F)F)n3)c(F)c2)nc2ccccc21` [Example 235, 2-({3-fluoro-4-[5-(trifluoromethyl)-1,2,4-oxadiazol-3-yl]phenyl}methoxy)-1-methyl-1H-benzimidazole], for which the IC50 at HDAC8 is 770 nM; at HDAC1, 520 nM.
In the case of `Cn1c(OCc2ccc(-c3noc(C(F)(F)F)n3)c(F)c2)nc2cccnc21` [Example 238, 2-({3-fluoro-4-[5-(trifluoromethyl)-1,2,4-oxadiazol-3-yl]phenyl}methoxy)-3-methyl-3H-imidazo[4,5-b]pyridine], the IC50 stood at 1300 nM on HDAC8 and 510 nM at HDAC1.
With `Fc1cc(COc2nc[nH]n2)ccc1-c1noc(C(F)(F)F)n1` [Example 247, 3-(2-fluoro-4-{[(1H-1,2,4-triazol-3-yl)oxy]methyl}phenyl)-5-(trifluoromethyl)-1,2,4-oxadiazole], the figures for the IC50 at HDAC8 and at HDAC1 were 1400 nM and 5500 nM, respectively.
Take `O=c1ccc2ccc(Br)cc2n1Cc1ccc(-c2noc(C(F)(F)F)n2)cc1` [Example 321, 7-bromo-1-{4-[5-(trifluoromethyl)-1,2,4-oxadiazol-3-yl]benzyl}quinolin-2(1H)-one]: the results for the IC50 at HDAC8 and at HDAC1 were 2600 nM and 210 nM, respectively.
Take `Fc1ccc2ccc(OCc3ccc(-c4noc(C(F)(F)F)n4)cn3)nc2c1` [Example 326, 7-fluoro-2-({5-[5-(trifluoromethyl)-1,2,4-oxadiazol-3-yl]pyridin-2-yl}methoxy)quinoline]: the IC50 at HDAC8 was found to be 45000 nM; on HDAC1, 35000 nM.
Consider `O=C1CCC(c2ccc(-c3noc(C(F)(F)F)n3)cc2)N1c1ccccc1F` (stereo not shown) [Example 329], for which the IC50 at HDAC8 came out at 7900 nM; on HDAC1, 3900 nM.

These data come from patent publication US11066396B2 (priority 2016, dated 2021).
